Laboratory results from the supplement of paper PMC10307832.

How the values were obtained:
Experiment in all cases: relative viability (nuclei count vs DMSO), 5 days (fraction); higher = more cells survive
[1] = compound: CC(C)N(CCCNC(=O)Nc1ccc(C(C)(C)C)cc1)C[C@H]1O[C@@H](n2ccc3c(N)ncnc32)[C@H](O)[C@@H]1O + CCNC(=O)c1noc(-c2cc(C(C)C)c(O)cc2O)c1-c1ccc(CN2CCOCC2)cc1 [Luminespib] (partner 0.01 µM)
In short: (§1)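 Lung cancer cell lines in 1536-well plates got either a single drug or a fixed anchor-drug dose together with five library-drug doses (not always all listed) in √10 steps, by pin tool, on the day after seeding. Nuclei were counted after 5 days, and relative viability is the treated-to-vehicle ratio of nuclei counts. Values are medians of duplicate plates.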

[2] = compound: CC(C)N(CCCNC(=O)Nc1ccc(C(C)(C)C)cc1)C[C@H]1O[C@@H](n2ccc3c(N)ncnc32)[C@H](O)[C@@H]1O + Cc1nc(Nc2ncc(C(=O)Nc3c(C)cccc3Cl)s2)cc(N2CCN(CCO)CC2)n1 [Dasatinib] (partner 0.075 µM)
In short: as §1

Shikonin + Lapatinib = compound: CC(C)=CC[C@@H](O)C1=CC(=O)c2c(O)ccc(O)c2C1=O [Shikonin] + CS(=O)(=O)CCNCc1ccc(-c2ccc3ncnc(Nc4ccc(OCc5cccc(F)c5)c(Cl)c4)c3c2)o1 [Lapatinib] (partner 2 µM)
In short: as §1

Shikonin + Navitoclax = compound: CC(C)=CC[C@@H](O)C1=CC(=O)c2c(O)ccc(O)c2C1=O [Shikonin] + CC1(C)CCC(c2ccc(Cl)cc2)=C(CN2CCN(c3ccc(C(=O)NS(=O)(=O)c4ccc(N[C@H](CCN5CCOCC5)CSc5ccccc5)c(S(=O)(=O)C(F)(F)F)c4)cc3)CC2)C1 [Navitoclax] (partner 0.5 µM)
In short: as §1

With RERF-LC-KJ the relative viability ([1]; first compound 0.08 µM) was 1.2, the relative viability ([1]; first compound 0.253 µM) was 1.22 and the relative viability ([1]; first compound 0.8 µM) was 1.33. It also gave a relative viability ([1]; first compound 2.53 µM) of 1.18, a relative viability ([1]; first compound 8 µM) of 1.19 and a relative viability ([2]; first compound 0.08 µM) of 0.837. For the same cell line, the relative viability ([2]; first compound 0.253 µM) was 0.888, the relative viability ([2]; first compound 0.8 µM) was 0.79 and the relative viability ([2]; first compound 2.53 µM) was 0.778. The relative viability ([2]; first compound 8 µM) was 0.799, the relative viability (Shikonin + Lapatinib; first compound 0.01 µM) was 0.972 and the relative viability (Shikonin + Lapatinib; first compound 0.1 µM) was 0.939. It also gave a relative viability (Shikonin + Lapatinib; first compound 0.3162 µM) of 0.83, a relative viability (Shikonin + Lapatinib; first compound 1 µM) of 0.941 and a relative viability (Shikonin + Navitoclax; first compound 0.01 µM) of 0.835. For the same cell line, the relative viability (Shikonin + Navitoclax; first compound 0.1 µM) was 0.996, the relative viability (Shikonin + Navitoclax; first compound 0.3162 µM) was 0.758 and the relative viability (Shikonin + Navitoclax; first compound 1 µM) was 1.11.
In the case of NCI-H727, the relative viability ([1]; first compound 0.08 µM) is reported as 0.372, the relative viability ([1]; first compound 0.253 µM) is reported as 0.453 and the relative viability ([1]; first compound 0.8 µM) is reported as 0.445. For the same cell line, the relative viability ([1]; first compound 2.53 µM) was 0.232, the relative viability ([1]; first compound 8 µM) was 0.471 and the relative viability ([2]; first compound 0.08 µM) was 0.381. The relative viability ([2]; first compound 0.253 µM) was 0.427, the relative viability ([2]; first compound 0.8 µM) was 0.345 and the relative viability ([2]; first compound 2.53 µM) was 0.393. For the same cell line, the relative viability ([2]; first compound 8 µM) was 0.333, the relative viability (Shikonin + Lapatinib; first compound 0.01 µM) was 0.923 and the relative viability (Shikonin + Lapatinib; first compound 0.1 µM) was 0.96. For the same cell line, the relative viability (Shikonin + Lapatinib; first compound 0.3162 µM) was 0.745, the relative viability (Shikonin + Lapatinib; first compound 1 µM) was 0.604 and the relative viability (Shikonin + Navitoclax; first compound 0.01 µM) was 0.405. For the same cell line, the relative viability (Shikonin + Navitoclax; first compound 0.1 µM) was 0.502, the relative viability (Shikonin + Navitoclax; first compound 0.3162 µM) was 0.366 and the relative viability (Shikonin + Navitoclax; first compound 1 µM) was 0.295.
Work on NCI-H1666 yielded a relative viability ([1]; first compound 0.08 µM) of 0.963, a relative viability ([1]; first compound 0.253 µM) of 0.987 and a relative viability ([1]; first compound 0.8 µM) of 1.07. It also gave a relative viability ([1]; first compound 2.53 µM) of 0.999, a relative viability ([1]; first compound 8 µM) of 0.941 and a relative viability ([2]; first compound 0.08 µM) of 0.874. For the same cell line, the relative viability ([2]; first compound 0.253 µM) was 0.796, the relative viability ([2]; first compound 0.8 µM) was 0.799 and the relative viability ([2]; first compound 2.53 µM) was 0.813. The relative viability ([2]; first compound 8 µM) was 0.705, the relative viability (Shikonin + Lapatinib; first compound 0.01 µM) was 0.585 and the relative viability (Shikonin + Lapatinib; first compound 0.1 µM) was 0.779. The relative viability (Shikonin + Lapatinib; first compound 0.3162 µM) was 0.657, the relative viability (Shikonin + Lapatinib; first compound 1 µM) was 0.853 and the relative viability (Shikonin + Navitoclax; first compound 0.01 µM) was 0.923. For the same cell line, the relative viability (Shikonin + Navitoclax; first compound 0.1 µM) was 1.02, the relative viability (Shikonin + Navitoclax; first compound 0.3162 µM) was 0.962 and the relative viability (Shikonin + Navitoclax; first compound 1 µM) was 0.723.
Work on NCI-H2087 yielded a relative viability ([1]; first compound 0.08 µM) of 0.211, a relative viability ([1]; first compound 0.253 µM) of 0.198 and a relative viability ([1]; first compound 0.8 µM) of 0.276. It also gave a relative viability ([1]; first compound 2.53 µM) of 0.16, a relative viability ([1]; first compound 8 µM) of 0.151 and a relative viability ([2]; first compound 0.08 µM) of 0.876. For the same cell line, the relative viability ([2]; first compound 0.253 µM) was 1.03, the relative viability ([2]; first compound 0.8 µM) was 0.77 and the relative viability ([2]; first compound 2.53 µM) was 1.04. It also gave a relative viability ([2]; first compound 8 µM) of 0.948, a relative viability (Shikonin + Lapatinib; first compound 0.01 µM) of 1.03 and a relative viability (Shikonin + Lapatinib; first compound 0.1 µM) of 1.38. For the same cell line, the relative viability (Shikonin + Lapatinib; first compound 0.3162 µM) was 1.15, the relative viability (Shikonin + Lapatinib; first compound 1 µM) was 0.954 and the relative viability (Shikonin + Navitoclax; first compound 0.01 µM) was 1.01. For the same cell line, the relative viability (Shikonin + Navitoclax; first compound 0.1 µM) was 1.15, the relative viability (Shikonin + Navitoclax; first compound 0.3162 µM) was 1.01 and the relative viability (Shikonin + Navitoclax; first compound 1 µM) was 0.917.
In the case of NCI-H1734, the relative viability ([1]; first compound 0.08 µM) is reported as 0.218, the relative viability ([1]; first compound 0.253 µM) is reported as 0.19 and the relative viability ([1]; first compound 0.8 µM) is reported as 0.209. The relative viability ([1]; first compound 2.53 µM) was 0.188, the relative viability ([1]; first compound 8 µM) was 0.23 and the relative viability ([2]; first compound 0.08 µM) was 0.411. For the same cell line, the relative viability ([2]; first compound 0.253 µM) was 0.415, the relative viability ([2]; first compound 0.8 µM) was 0.456 and the relative viability ([2]; first compound 2.53 µM) was 0.485. The relative viability ([2]; first compound 8 µM) was 0.508, the relative viability (Shikonin + Lapatinib; first compound 0.01 µM) was 1.17 and the relative viability (Shikonin + Lapatinib; first compound 0.1 µM) was 1.25. It also gave a relative viability (Shikonin + Lapatinib; first compound 0.3162 µM) of 1.02, a relative viability (Shikonin + Lapatinib; first compound 1 µM) of 1.09 and a relative viability (Shikonin + Navitoclax; first compound 0.01 µM) of 0.941. It also gave a relative viability (Shikonin + Navitoclax; first compound 0.1 µM) of 0.83, a relative viability (Shikonin + Navitoclax; first compound 0.3162 µM) of 0.949 and a relative viability (Shikonin + Navitoclax; first compound 1 µM) of 0.74.
Cell Line NCI-H2228 has a relative viability ([1]; first compound 0.08 µM) of 0.218, a relative viability ([1]; first compound 0.253 µM) of 0.191 and a relative viability ([1]; first compound 0.8 µM) of 0.178. It also gave a relative viability ([1]; first compound 2.53 µM) of 0.144, a relative viability ([1]; first compound 8 µM) of 0.18 and a relative viability ([2]; first compound 0.08 µM) of 0.54. For the same cell line, the relative viability ([2]; first compound 0.253 µM) was 0.457, the relative viability ([2]; first compound 0.8 µM) was 0.502 and the relative viability ([2]; first compound 2.53 µM) was 0.416. For the same cell line, the relative viability ([2]; first compound 8 µM) was 0.613, the relative viability (Shikonin + Lapatinib; first compound 0.01 µM) was 0.913 and the relative viability (Shikonin + Lapatinib; first compound 0.1 µM) was 0.902. The relative viability (Shikonin + Lapatinib; first compound 0.3162 µM) was 0.921, the relative viability (Shikonin + Lapatinib; first compound 1 µM) was 0.83 and the relative viability (Shikonin + Navitoclax; first compound 0.01 µM) was 0.799. It also gave a relative viability (Shikonin + Navitoclax; first compound 0.1 µM) of 0.846, a relative viability (Shikonin + Navitoclax; first compound 0.3162 µM) of 0.911 and a relative viability (Shikonin + Navitoclax; first compound 1 µM) of 0.895.
In the case of EMC-BAC-2, the relative viability ([1]; first compound 0.08 µM) is reported as 1.16, the relative viability ([1]; first compound 0.253 µM) is reported as 1.15 and the relative viability ([1]; first compound 0.8 µM) is reported as 1.22. The relative viability ([1]; first compound 2.53 µM) was 1.24, the relative viability ([1]; first compound 8 µM) was 1.13 and the relative viability ([2]; first compound 0.08 µM) was 0.349. It also gave a relative viability ([2]; first compound 0.253 µM) of 0.36, a relative viability ([2]; first compound 0.8 µM) of 0.297 and a relative viability ([2]; first compound 2.53 µM) of 0.359. It also gave a relative viability ([2]; first compound 8 µM) of 0.37, a relative viability (Shikonin + Lapatinib; first compound 0.01 µM) of 0.939 and a relative viability (Shikonin + Lapatinib; first compound 0.1 µM) of 0.999. For the same cell line, the relative viability (Shikonin + Lapatinib; first compound 0.3162 µM) was 0.941, the relative viability (Shikonin + Lapatinib; first compound 1 µM) was 0.923 and the relative viability (Shikonin + Navitoclax; first compound 0.01 µM) was 1.13. For the same cell line, the relative viability (Shikonin + Navitoclax; first compound 0.1 µM) was 1.1, the relative viability (Shikonin + Navitoclax; first compound 0.3162 µM) was 1.28 and the relative viability (Shikonin + Navitoclax; first compound 1 µM) was 1.22.
Work on NCI-H2009 yielded a relative viability ([1]; first compound 0.08 µM) of 0.977, a relative viability ([1]; first compound 0.253 µM) of 0.861 and a relative viability ([1]; first compound 0.8 µM) of 1.08. It also gave a relative viability ([1]; first compound 2.53 µM) of 1.02, a relative viability ([1]; first compound 8 µM) of 0.884 and a relative viability ([2]; first compound 0.08 µM) of 0.261. The relative viability ([2]; first compound 0.253 µM) was 0.281, the relative viability ([2]; first compound 0.8 µM) was 0.273 and the relative viability ([2]; first compound 2.53 µM) was 0.288. For the same cell line, the relative viability ([2]; first compound 8 µM) was 0.295, the relative viability (Shikonin + Lapatinib; first compound 0.01 µM) was 1.02 and the relative viability (Shikonin + Lapatinib; first compound 0.1 µM) was 0.894. For the same cell line, the relative viability (Shikonin + Lapatinib; first compound 0.3162 µM) was 0.923, the relative viability (Shikonin + Lapatinib; first compound 1 µM) was 0.498 and the relative viability (Shikonin + Navitoclax; first compound 0.01 µM) was 1.23. It also gave a relative viability (Shikonin + Navitoclax; first compound 0.1 µM) of 1.16, a relative viability (Shikonin + Navitoclax; first compound 0.3162 µM) of 1.19 and a relative viability (Shikonin + Navitoclax; first compound 1 µM) of 1.05.
